Experimental data taken from patent publication US20220089575A1, “FARNESOID X RECEPTOR AGONISTS AND USES THEREOF” (Metacrine, Inc., priority 2017, published 2022).

biological target: T1, hFXR (Homo sapiens, UniProt Q96RI1); assay: In Vitro FXR Assay (TK): TK-ECRE-luc reporter in transfected CV-1 cells; format: cell-based; conditions: 18 hrs, luminescence, maximum efficacy of <25% of the Fexarmine control classified as '+'
T1 construct: expressed in transfected cells; host or cells: CV-1 cells
T1 sequence (Q96RI1 1-486): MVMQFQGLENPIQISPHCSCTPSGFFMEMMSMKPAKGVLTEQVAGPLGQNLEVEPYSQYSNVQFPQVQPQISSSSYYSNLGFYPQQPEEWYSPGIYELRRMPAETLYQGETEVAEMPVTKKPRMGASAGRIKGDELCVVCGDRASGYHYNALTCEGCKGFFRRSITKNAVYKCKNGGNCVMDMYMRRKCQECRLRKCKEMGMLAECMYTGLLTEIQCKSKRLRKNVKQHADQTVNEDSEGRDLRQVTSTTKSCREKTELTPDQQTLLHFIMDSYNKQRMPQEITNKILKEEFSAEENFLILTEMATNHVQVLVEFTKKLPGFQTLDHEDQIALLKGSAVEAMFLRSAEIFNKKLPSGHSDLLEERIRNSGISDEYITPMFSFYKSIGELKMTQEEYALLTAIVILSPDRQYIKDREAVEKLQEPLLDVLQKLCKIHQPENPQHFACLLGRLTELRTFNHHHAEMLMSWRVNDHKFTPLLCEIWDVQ
T1 sequence (P19793 1-462 partner): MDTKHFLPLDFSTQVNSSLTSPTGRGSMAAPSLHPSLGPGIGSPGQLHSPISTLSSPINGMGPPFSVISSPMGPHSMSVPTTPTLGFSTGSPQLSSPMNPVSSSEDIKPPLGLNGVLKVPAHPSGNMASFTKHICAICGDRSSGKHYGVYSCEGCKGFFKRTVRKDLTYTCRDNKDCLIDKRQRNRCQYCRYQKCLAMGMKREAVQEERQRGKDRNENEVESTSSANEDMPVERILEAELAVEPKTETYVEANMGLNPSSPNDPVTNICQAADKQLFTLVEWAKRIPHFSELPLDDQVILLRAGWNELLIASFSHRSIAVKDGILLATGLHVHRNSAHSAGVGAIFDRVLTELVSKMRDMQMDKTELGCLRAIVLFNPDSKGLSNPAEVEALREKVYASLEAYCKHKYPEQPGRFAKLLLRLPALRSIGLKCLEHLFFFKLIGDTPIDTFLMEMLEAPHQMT
Method in brief: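 Transiently transfected monkey CV-1 cells (hFXR, hRXR, TK-ECRE-luciferase, YFP control plasmid), held in stripped-serum DMEM, received compound dilutions from DMSO for 18 h at 37 °C. Activity was taken from luminescence of the cell lysates.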

`COc1ccc([C@H]2CC[C@H](CN(c3cc(-c4cnc(C5CC5)s4)ccn3)C(=O)[C@H]3CC[C@H](OC(=O)NCCO)CC3)CC2)cc1C` [Compound 6.02, trans-4-((4-(2-Cyclopropylthiazol-5-yl)pyridin-2-yl)((trans-4-(4-methoxy-3-methylphenyl)cyclohexyl)methyl)carbamoyl)cyclohexyl (2-hydroxyethyl) carbamate] and `COc1ccc([C@H]2CC[C@H](CN(c3cc(-c4cnc(C5CC5)s4)ccn3)C(=O)[C@H]3CC[C@H](CC(=O)O)CC3)CC2)nc1C` [Compound 20.04, 2-(trans-4-((4-(2-Cyclopropylthiazol-5-yl)pyridin-2-yl)((trans-4-(5-methoxy-6-methylpyridin-2-yl)cyclohexyl)methyl)carbamoyl)cyclohexyl)acetic acid] cannot be ordered by EC50: ≤ 250 nM for the first, ≤ 250 nM for the second.

`COc1ccc([C@H]2CC[C@H](CN(c3cccc(-c4cnn(C5CC5)c4)c3)C(=O)[C@H]3CC[C@H](OC(=O)NC4COC4)CC3)CC2)cc1C` [Compound 6.24, trans-4-((3-(1-Cyclopropyl-1H-pyrazol-4-yl)phenyl)((trans-4-(4-methoxy-3-methylphenyl)cyclohexyl)methyl)carbamoyl)cyclohexyl oxetan-3-ylcarbamate] and `COc1ccc([C@H]2CC[C@H](CN(c3cccc(-c4cnn(C5CC5)c4)c3)C(=O)[C@H]3CC[C@H](OC(=O)NCCCCCN(C)C)CC3)CC2)cc1C` [Compound 4.21, trans-4-((3-(1-Cyclopropyl-1H-pyrazol-4-yl)phenyl)((trans-4-(4-methoxy-3-methylphenyl)cyclohexyl)methyl)carbamoyl)cyclohexyl (5-(dimethylamino)pentyl)carbamate] cannot be ordered by EC50: ≤ 250 nM for the first, ≤ 250 nM for the second.

`CNC(=O)O[C@H]1CC[C@H](C(=O)N(CC23CCC(c4ccc(OC)c(C)c4)(CC2)CC3)c2cccc(-c3coc(C4CC4)n3)c2)CC1` [Compound 2.07, 4-((3-(2-Cyclopropyloxazol-4-yl)phenyl)((4-(4-methoxy-3-methylphenyl)bicyclo[2.2.2]octan-1-yl)methyl)carbamoyl)cyclohexyl trans-methylcarbamate] and `COCCNC(=O)O[C@H]1CC[C@H](C(=O)N(C[C@H]2CC[C@H](c3ccc(OC)c(C)n3)CC2)c2cc(-c3coc(C4CC4)n3)ccn2)CC1` [Compound 6.56, trans-4-((4-(2-Cyclopropyloxazol-4-yl)pyridine-2-yl)((trans-4-(5-methoxy-6-methylpyridin-2-yl)cyclohexyl)methyl)carbamoyl)cyclohexyl (2-methoxyethyl) carbamate] cannot be ordered by EC50: ≤ 250 nM for the first, ≤ 250 nM for the second.

`COc1ncc(-c2cccc(N(C[C@H]3CC[C@H](c4ccc(OC)c(C)c4)CC3)C(=O)[C@H]3CC[C@H](NC(=O)OC(C)(C)C)CC3)c2)s1` [Compound 25.01, tert-Butyl (trans-4-(((trans-4-(4-methoxy-3-methylphenyl)cyclohexyl)methyl)(3-(2-methoxythiazol-5-yl)phenyl)carbamoyl)cyclohexyl)carbamate] and `COc1ccc([C@H]2CC[C@H](CN(c3cccc(-c4cnn(C5CC5)c4)c3)C(=O)[C@H]3CC[C@H](OC(=O)N4CC(O)C4)CC3)CC2)cc1C#N` [Compound 7.19, trans-4-(((trans-4-(3-Cyano-4-methoxyphenyl)cyclohexyl)methyl)(3-(1-cyclopropyl-1H-pyrazol-4-yl)phenyl)carbamoyl)cyclohexyl 3-hydroxyazetidine-1-carboxylate] cannot be ordered by EC50: 250 to 1000 nM for the first, ≤ 250 nM for the second.

For `COc1ccc([C@H]2CC[C@H](CN(c3cc(-c4cnn(C(C)C)c4)ccn3)C(=O)[C@H]3CC[C@H](OC(=O)N4CCOCC4)CC3)CC2)nc1C` [Compound 6.40, trans-4-((4-(1-Isopropyl-1H-pyrazol-4-yl)pyridin-2-yl)((trans-4-(5-methoxy-6-methylpyridin-2-yl)cyclohexyl)methyl)carbamoyl)cyclohexyl morpholine-4-carboxylate], the EC50 was ≤ 250 nM.
